For the assay, the system named is KRAS mutant cell lines. Nature of the assay: Apoptosis by Annexin V-FITC/PI staining and flow cytometry. Type of assay: cell-based. The following applies: mutant cancer cells, 24 h. The protocol: FIG. 6 depicts the compound I induces apoptosis in KRAS-dependent cancer cell line • FIG. 6(A)—Morphological changes after 24 h exposure to compound I ([…]) were captured by an Epifluroscent microscope with ×100 magnification, scale bar: 20 μm. • FIG. 6(B)—Cells were treated with 250 nm of Compound I for 24 h and apoptosis levels were quantitatively measured with flow cytometry after staining cells with Annexin V/propidium iodide (PI), and triplicate data were plotted as bar chart diagram. • FIG. 6(C)—Representative western blot data of different apoptosis-related protein (PARP, Bcl-2, and Bax) confirmed induction of cellular apoptosis after treatment ([…]) for 24 h. […]
Compound 1 was subjected to cancer induced model and determined whether the observed growth inhibition was due to apoptosis or necrosis. […] Next, applying standard Annex in V-FITC/PI staining followed by flow cytometry analysis, the percentage of apoptotic and necrotic cells were quantitatively measured. […] Furthermore, to examine compound-induced apoptosis in KRAS mutant cells, the expression levels of several well-characterized apoptotic proteins were analyzed by western blotting. […] The densitometry quantitation of the ratio of Bax/Bcl2 protein expression and PARP cleavage relative to GAPHD is shown as a bar chart in […].

SMILES strings stand for the structures.

On to `CCCCc1ncc(C(=O)C2CC=C(C(N)=O)N2)cc1C(=O)OCC` (stereo not shown) [Compound 1], for which the “apoptosis compared with the untreated cells” value is given as “significantly induced apoptosis”.
